# Test system: Pseudomonas aeruginosa PAM1001
# Assay: checkerboard assay (broth microdilution): levofloxacin MIC in presence of efflux pump inhibitor
# Type: cell-based
# In short: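 Checkerboard broth microdilution in Mueller Hinton Broth against P. aeruginosa PAM1001 (5×10^5 CFU/mL, early-log inoculum), levofloxacin and efflux pump inhibitor (up to 40 μg/mL) diluted along crossing axes. Plates incubated 20 h at 35° C; growth read at 650 nm and visually. Potentiation scored as reduced levofloxacin MIC.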
SMILES,"Levofloxacin MIC Against P. aerugiuosa PAM1001 in Presence of Efflux Pump Inhibitor (EPI), Minimum Inhibitory Concentration (EPI Conc. 0 μg/mL) [µg/mL]","Levofloxacin MIC Against P. aerugiuosa PAM1001 in Presence of Efflux Pump Inhibitor (EPI), Minimum Inhibitory Concentration (EPI Conc. 0.625 μg/mL) [µg/mL]","Levofloxacin MIC Against P. aerugiuosa PAM1001 in Presence of Efflux Pump Inhibitor (EPI), Minimum Inhibitory Concentration (EPI Conc. 1.25 μg/mL) [µg/mL]","Levofloxacin MIC Against P. aerugiuosa PAM1001 in Presence of Efflux Pump Inhibitor (EPI), Minimum Inhibitory Concentration (EPI Conc. 2.5 μg/mL) [µg/mL]","Levofloxacin MIC Against P. aerugiuosa PAM1001 in Presence of Efflux Pump Inhibitor (EPI), Minimum Inhibitory Concentration (EPI Conc. 5 μg/ mL) [µg/mL]","Levofloxacin MIC Against P. aerugiuosa PAM1001 in Presence of Efflux Pump Inhibitor (EPI), Minimum Inhibitory Concentration (EPI Conc. 10 μg/mL) [µg/mL]","Levofloxacin MIC Against P. aerugiuosa PAM1001 in Presence of Efflux Pump Inhibitor (EPI), Minimum Inhibitory Concentration (EPI Conc. 20 μg/mL) [µg/mL]","Levofloxacin MIC Against P. aerugiuosa PAM1001 in Presence of Efflux Pump Inhibitor (EPI), Minimum Inhibitory Concentration (EPI Conc. 40 μg/mL) [µg/mL]"
"NC[C@@H]1CN[C@@H](CO[C@H](CCc2ccccc2)C(=O)Nc2cnc3ccccc3c2)C1 [Compound M70, (2R,4R)-4-(Amiomethyl)-2-[((1R)-3-phenyl-1-(3-quiolylcarbamoyl)propyl)oxymethyl]pyrrolidie]",4,4,2,1,1,0.125,0.125,0.06
"NC[C@@H]1CN[C@@H](COc2ccc3ccccc3n2)C1 [Compound M71, (2R,4R)-4-(Aminomethyl)-2 (2-quiolyloxymethyl)pyrrolidne]",4,4,4,4,4,4,2,0.5
"Cc1ccc2ncc(C(=O)NC[C@H]3C[C@H](CN)CN3)cc2c1 [Compound M72, (2R,4R)-4-(Aminomethyl)-2-(6-methyl-3-quinolylcarboxamidomethyl)pyrrolidine]",4,4,4,4,4,4,2,0.5
"NCC(=O)N[C@H]1CN[C@H](c2nc3ccc(Cc4ccccc4)cc3[nH]2)C1 [Compound M73, (2S,4R)-4-(2-Aminoacetamido)-2-(5-benzyl-2-benzmidazolyl)pyrrolidine]",4,4,4,–,–,–,–,–
